Columns and labels:
[1] = tested on: HUVEC cell layer; experiment: Implantation of A549 cells into HUVEC cell layer; format: cell-based, human; settings: VEGF+hANP (1 μM)
Method: Normal human umbilical cord vein endothelial cells (HUVEC) were purchased from Takara Bio, Inc. Medium preparation and subculture were performed according to the package insert. Nuclear staining was performed using TOPRO3 (purchased from Invitrogen), and immunostaining of VE-cadherin was performed using anti-VE-cadherin antibody (purchased from BD Biosciences). p After culturing the HUVEC to confluent and replacing the medium with a serum free medium, nuclear staining and immunostaining using anti-VE-cadherin antibody were performed in the presence or absence of VEGF and hANP to observe the expression of VE-cadherin.
In the presence of VEGF alone, the expression of VE-cadherin decreased, and intercellular gaps were observed. […] Further, in the presence of VEGF alone, when A549 cells were added onto the HUVEC cell layer, implantation of the A549 cells into the HUVEC cell layer was observed.

[2] = tested on: A549 cells; experiment: Intracellular cGMP level in A549 cells on natriuretic peptide stimulus; format: cell-based; settings: 1×10^−11 M to 1×10^−6 M, 10 minutes
Method: The A549 cells were cultured in a 24-well dish at 4×10^4 cells/well, and the culture medium was replaced with DMEM culture medium free from FCS the next day. To the culture medium, solutions of hANP, hBNP, and hCNP (final concentration: ten-fold serial dilution from 1×10^−11 M to 1×10^−6 M, the same amount of physiological saline was used as a control) were separately added. After 10 minutes passed, 400 μL of cooled 70% ethanol (containing 0.1 N hydrochloric acid) was added, and ultrasonication was performed for a short time. The treated solution was lyophilized, and the cGMP level was measured using Cyclic GMP Assay kit (made by Yamasa Corp.).

[3] = tested on: A549 cells; experiment: Invasion ability, Matrigel-coated Boyden chamber assay, A549 cells; format: cell-based; settings: 1 μM hANP, TGF-β1 1 ng/mL, 40 hours
Method: Using a 6-well dish, the A549 cells were cultured at 1×10^5 cells/well, and the culture medium was replaced with DMEM culture medium free from FBS the next day. After 24 hours of culture, the cells were divided into 3 groups (the control group, the TGF-β1 group, and the TGF-β1+hANP group), and used in the following experiment.
To the culture medium for the TGF-β1+hANP group, the hANP solution was added so that the final concentration of hANP would be […] the control group and the TGF-β1 group, the same amount of physiological saline was added to the culture medium. After 2 hours from the addition, the Boyden chamber assay was performed as follows. Cell culture inserts (8.0 μm pore size, made by Becton, Dickinson and Company) coated with Matrigel were prepared beforehand by placing cell culture inserts on a 6-well dish, adding 300 μL each of a […] Matrigel solution (adjusted with PBS) thereonto, and air drying the inserts.
DMEM culture medium free from FBS for the control group, the same DMEM culture medium containing TGF-β1 (final concentration: 1 ng/mL) for the TGF-β1 group, and the same DMEM culture medium containing hANP (final concentration: 1 μM) and TGF-β1 (final concentration: 1 ng/mL) for the TGF-β1+hANP group were separately added to each well of a 6-well dish in an amount of 1.5 mL. […]

[4] = tested on: A549 cells; experiment: EMT induced by TGF-β1 in A549 cells (morphology, quantitative RT-PCR); format: cell-based; settings: 1 μM hANP, TGF-β1 stimulus
Method: Using a 6-well dish, the A549 cells were cultured at 1×10^5 cells/well, and the culture medium was replaced with DMEM culture medium free from FBS the next day. After 24 hours of culture, the cells were used in the following experiment.
An ANP group (ANP solution was added (final concentration: 1 μM)) and a control group (the same amount of physiological saline was added) were prepared, and after 2 hours from the addition, TGF-β1 was added so that the final concentration would be 0.125, 0.25, 0.5, 1.0, and 2.0 ng/mL. After 24 hours had passed, the morphological change in the cells was observed under a microscope and photographed (FIG. 3).
Then, total RNA was collected using TRIZOL total RNA isolation reagent (made by Invitrogen), cDNA was synthesized using reverse transcriptase, and the mRNA levels of E-cadherin, N-cadherin, VEGF-A, PDGF-B, TNF-α, and IL-6 were measured by quantitative RT-PCR. It is known that in EMT, the expression of E-cadherin decreases while the expression of N-cadherin increases. The expression ratio of N-cadherin/E-cadherin is considered to be useful as an indicator of the degree of EMT.

[5] = tested on: lung cancer patients; experiment: Cancer recurrence after cancer resection surgery in lung cancer patients; format: in vivo, human; settings: hANP 0.025 μg/kg/min continuous from surgery for 3 days, about 2 years follow-up, stages IA-III
Method: It is reported that lung cancer patients whose BNP level in the blood is 30 pg/mL or higher are at high risk of postsurgical complications after a cancer removal surgery. In this experiment, lung cancer patients were measured for the BNP level in the blood before cancer removal surgery. A part of the patients having the BNP level in the blood of 30 pg/mL or higher and patients judged to be at high risk of postsurgical complications by the doctor in charge were assigned to the hANP group (52 patients in total; cancer stage breakdown was IA: 26 patients […], IB: 16 patients […], II: 7 patients […], and III: 3 patients (6%)). The control group consisted of patients assigned regardless of the BNP level in the blood (287 patients in total, cancer stage breakdown was IA: 155 patients (54%), IB: 65 patients (23%), II: 35 patients (12%), and III: 32 patients (11%)). To the hANP group, hANP (trade name: HAMP for INJECTION 1000, non-bolus, made by DAIICHI SANKYO Co., Ltd.) was continuously administered at 0.025 μg/kg/min starting during the surgery of lung cancer and the administration continued for 3 days after surgery. Before the surgery and for 4 days after surgery, each patient was measured for the blood pressure (systolic and diastolic), the heart rate, and the urine volume. […]

CC[C@H](C)[C@@H]1NC(=O)[C@H](CCCNC(=N)N)NC(=O)[C@H](CC(=O)O)NC(=O)[C@H](CCSC)NC(=O)[C@H](CCCNC(=N)N)NC(=O)CNC(=O)CNC(=O)[C@H](Cc2ccccc2)NC(=O)[C@@H](NC(=O)[C@H](CO)NC(=O)[C@H](CO)NC(=O)[C@H](CCCNC(=N)N)NC(=O)[C@H](CCCNC(=N)N)NC(=O)[C@H](CC(C)C)NC(=O)[C@@H](N)CO)CSSC[C@@H](C(=O)N[C@@H](CC(N)=O)C(=O)N[C@@H](CO)C(=O)N[C@@H](Cc2ccccc2)C(=O)N[C@@H](CCCNC(=N)N)C(=O)N[C@@H](Cc2ccc(O)cc2)C(=O)O)NC(=O)CNC(=O)[C@H](CC(C)C)NC(=O)CNC(=O)[C@H](CO)NC(=O)[C@H](CCC(N)=O)NC(=O)[C@H](C)NC(=O)CNC1=O [hANP, carperitide]
implantation of A549 cells into the HUVEC cell layer [1]: this phenomenon of implantation was suppressed
intracellular cGMP level [2]: increased the intracellular cGMP level of the A549 cells in a concentration-dependent manner
cell invasion via the Matrigel layer [3]: significantly suppressed
expression of E-cadherin under TGF-β1 stimulus [4]: inhibited decrease
expression of N-cadherin induced by TGF-β1 [4]: significantly suppressed increase
expression ratio of N-cadherin/E-cadherin [4]: significantly decreased
gene expression of IL-6 (mRNA level) [4]: significantly suppressed
gene expression of PDGF-B (mRNA level) [4]: significantly suppressed
gene expression of TNF-α (mRNA level) [4]: significantly suppressed
gene expression of VEGF-A (mRNA level) [4]: significantly suppressed
morphological change associated with EMT induced by TGF-β1 ([4]; 24 hours): significantly suppressed
early recurrence of cancer (recurrence-free survival) [5]: early recurrence was not observed
